Data published in patent publication US11065244B2, “Methods of use of tetrahydroberberine (THB)” (DIGNITY HEALTH, priority 2010, dated 2021).

How the values were obtained:
[1] = tested on: D2 receptor and dopamine-opened K+ channels; assay: Dopamine-induced membrane potential hyperpolarization in dissociated SNc DA neurons; format: cell-based, rat
Method: All experiments were performed at room temperature (22±1° C.).

SNc DA neurons = assay: Perforated patch current-clamp recording of membrane potential and firing of dissociated SNc DA neurons, substance applied alone; format: cell-based, rat
Method: (§1) The protocol for preparation of single neurons from the rat SNc was approved by the Institutional Animal Care and Use Committee of the Barrow Neurological Institute. Single DA neurons were acutely dissociated from the SNc of 2-3-week-old Wistar rats following the protocol as previously described. Briefly, rats were anesthetized with isoflurane, and brain tissue was rapidly removed and immersed in cold (2-4° C.) dissection solution which contained: 136.7 mM NaCl, 5 mM KCl, 0.1 mM Na2HPO4, 0.2 mM KH2PO4, 9.84 mM HEPES, 16.6 mM D-glucose, 21.9 mM sucrose, pH 7.3, 330 mOsm, oxygenated with 100% O2 [8]. Three 400-μm coronal slices containing the SNc were cut using a vibrotome (Vibroslice 725M, WPI, Sarasota, Fla.). After cutting, slices were continuously bubbled with 95% O2-5% CO2 at room temperature (22±1° C.) for at least one hour in artificial cerebrospinal fluid (ACSF), which contained: 124 mM NaCl, 5 mM KCl, 24 mM NaHCO3, 1.3 mM MgSO4, 1.2 mM KH2PO4, 2.4 mM CaCl2, and 10 mM glucose, pH 7.4. Thereafter, slices were treated with pronase (1 mg per 6 ml) at 31° C. for 30 minutes in ACSF. The SNc was identified in a coronal slice using a stereo microscope with reference to the rat brain atlas, and was micro-punched out from slices using a well-polished needle. One punched piece was then transferred to a 35-mm culture dish filled with well-oxygenated standard extracellular solution, which contained: 150 mM NaCl, 5 mM KCl, 1 mM MgCl2, 2 mM CaCl2, 10 mM glucose 10, and 10 mM HEPES, pH 7.4 (with Tris-base). The punched piece was then dissociated mechanically using a fire-polished micro-Pasteur pipette under an inverted microscope (Olympus IX-70, Lake Success, N.Y.). The separated cells adhered to the bottom of the culture dish within 30 minutes. In the present study, we used only DA neurons that maintained their original morphological features of polygonal, large or medium somata with 2-4 thick primary dendritic processes were used.
Perforated patch whole-cell recording techniques were employed as previously described. Pipettes (3-5 MΩ) used for perforated patch recording were filled with intracellular recording solution containing 140 mM potassium gluconate, 10 mM KCl, 5 mM MgCl2, and 10 mM HEPES, pH 7.2 (with Tris-OH). The amphotericin B was freshly prepared to 200-240 μg/ml from a 40 mg/ml in DMSO stock. The liquid junction potential was 14 mV calculated using Clamplex 9.2 (Axon Instruments, Foster City, Calif.) and corrections were made for junction potentials post-hoc. After tight seal (>2 GΩ) formation, it usually took about 5-20 min to convert to perforated patch mode, and an access resistance of 20-60 MΩ was accepted to start the experiments. Series resistance was not compensated in this study. The data were filtered at 2 kHz, acquired at 10 kHz and digitized on-line (Digidata 1322 series A/D board, Axon Instruments, Foster City, Calif.). […] Drug application was performed using a computer-controlled “U-tube” system as previously described. All experiments were performed at room temperature (22±1° C.). To enable identification of single, dissociated SNc neurons after a patch-clamp recording session, the recording pipette was filled with a fluorescent dye (lucifer yellow CH, Sigma Chemical Co., St. Louis, Mo., 1.0 mg/ml in the recording electrode) in some experiments. After conversion from the perforated patch to the conventional whole-cell recording mode, the dye was ejected into the cytoplasm by a pulse (200 ms, 0.5 Hz) of hyperpolarizing current (1.0 nA) for 3 min. Labeled cells were visualized using epifluorescence microscopy. […]

neuronal KATP channels = target: T1, neuronal KATP channels (Rattus norvegicus, UniProt P70673+Q09429); assay: Rotenone-induced outward current in voltage-clamp mode in the presence of the D2 receptor antagonist sulpiride; format: cell-based; conditions: 100 mM substance as printed; sulpiride present; VH −30 mV; from 125.8±37.1 pA; 6 neurons; p<0.01
T1 construct: functional KATP channels natively expressed on midbrain dopamine neurons; from tissue; host or cells: acutely dissociated dopaminergic neurons of rat substantia nigra pars compacta
T1 sequence (P70673 whole entry): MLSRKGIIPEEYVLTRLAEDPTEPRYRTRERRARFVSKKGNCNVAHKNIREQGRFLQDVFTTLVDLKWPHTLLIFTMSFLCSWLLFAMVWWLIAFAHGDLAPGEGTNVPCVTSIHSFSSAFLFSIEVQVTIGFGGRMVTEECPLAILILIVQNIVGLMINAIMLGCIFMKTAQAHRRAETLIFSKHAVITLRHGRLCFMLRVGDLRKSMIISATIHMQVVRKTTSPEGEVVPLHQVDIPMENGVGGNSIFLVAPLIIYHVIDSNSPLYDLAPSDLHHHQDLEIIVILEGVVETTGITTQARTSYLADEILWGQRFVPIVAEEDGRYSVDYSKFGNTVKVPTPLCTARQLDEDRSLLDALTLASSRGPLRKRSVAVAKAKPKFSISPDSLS
T1 sequence (Q09429 whole entry): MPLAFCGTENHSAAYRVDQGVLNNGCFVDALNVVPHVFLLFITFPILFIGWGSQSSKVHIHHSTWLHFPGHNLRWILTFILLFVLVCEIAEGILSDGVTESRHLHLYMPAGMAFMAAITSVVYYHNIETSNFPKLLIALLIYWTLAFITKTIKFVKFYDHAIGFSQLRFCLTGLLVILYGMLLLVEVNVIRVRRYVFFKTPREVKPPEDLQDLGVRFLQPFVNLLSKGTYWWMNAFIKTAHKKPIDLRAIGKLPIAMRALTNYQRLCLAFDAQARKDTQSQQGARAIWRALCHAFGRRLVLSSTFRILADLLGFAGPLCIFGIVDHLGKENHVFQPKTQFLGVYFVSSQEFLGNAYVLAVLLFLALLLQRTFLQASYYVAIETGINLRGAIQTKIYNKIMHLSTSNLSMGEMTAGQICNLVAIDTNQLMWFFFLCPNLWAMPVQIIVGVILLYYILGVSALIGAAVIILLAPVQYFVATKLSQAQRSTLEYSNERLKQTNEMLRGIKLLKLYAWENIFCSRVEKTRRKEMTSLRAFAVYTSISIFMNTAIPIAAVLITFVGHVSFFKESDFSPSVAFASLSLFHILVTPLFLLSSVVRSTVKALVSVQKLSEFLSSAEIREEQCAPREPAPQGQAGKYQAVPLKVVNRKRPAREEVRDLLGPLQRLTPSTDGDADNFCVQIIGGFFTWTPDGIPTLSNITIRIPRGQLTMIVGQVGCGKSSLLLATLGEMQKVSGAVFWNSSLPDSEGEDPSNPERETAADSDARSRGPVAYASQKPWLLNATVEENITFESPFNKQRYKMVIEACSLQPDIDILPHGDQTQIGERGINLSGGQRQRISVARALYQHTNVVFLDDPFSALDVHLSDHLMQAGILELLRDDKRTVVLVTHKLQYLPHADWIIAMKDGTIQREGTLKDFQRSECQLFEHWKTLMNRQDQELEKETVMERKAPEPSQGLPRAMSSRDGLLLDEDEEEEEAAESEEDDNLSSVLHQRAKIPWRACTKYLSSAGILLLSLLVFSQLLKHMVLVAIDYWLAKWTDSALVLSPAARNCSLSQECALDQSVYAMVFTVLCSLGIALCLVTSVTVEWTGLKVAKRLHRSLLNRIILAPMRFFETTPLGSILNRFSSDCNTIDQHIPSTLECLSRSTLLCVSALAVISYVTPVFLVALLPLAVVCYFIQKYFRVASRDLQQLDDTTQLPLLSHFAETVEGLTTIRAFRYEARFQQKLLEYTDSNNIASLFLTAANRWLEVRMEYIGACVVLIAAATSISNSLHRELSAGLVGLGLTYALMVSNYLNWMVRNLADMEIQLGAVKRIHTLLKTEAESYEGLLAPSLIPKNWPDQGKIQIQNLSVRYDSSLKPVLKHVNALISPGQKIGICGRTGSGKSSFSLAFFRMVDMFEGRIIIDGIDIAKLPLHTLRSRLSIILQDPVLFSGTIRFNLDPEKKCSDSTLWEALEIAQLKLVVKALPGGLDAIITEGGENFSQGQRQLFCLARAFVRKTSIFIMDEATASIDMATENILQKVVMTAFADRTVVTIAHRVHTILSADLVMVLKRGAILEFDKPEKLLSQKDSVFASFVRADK
Method: as §1, with “In the present study, we used only DA neurons that maintained their original morphological features of polygonal, large or medium somata with 2-4 thick primary dendritic processes were used.” left out
Perforated patch whole-cell recording techniques were employed as previously described. […] The liquid junction potential was 14 mV calculated using Clamplex 9.2 (Axon Instruments, Foster City, Calif.) and corrections were made for junction potentials post-hoc. […]

rat pancreatic islets = assay: Insulin release from rat pancreatic islets; format: cell-based; conditions: 100 μM; 5.5 mM glucose external; from 22.5±1.2
Method: With 5.5 mM glucose in the external solution, basal insulin secretion was measured. […] Bath application of 100 μM THB increased insulin secretion from 22.5±1.2 to 39.4±1.5 pg/islet/min (FIG. 5; P<0.01; 6 cells) and 100 μM Ipt increased insulin secretion from 22.5±1.2 to 34.5±1.8 pg/islet/min (FIG. 11; P<0.05; 7 cells).

COc1ccc2c(c1OC)CN1CCc3cc4c(cc3C1C2)OCO4 (stereo not drawn) [THB, tetrahydroberberine] was tested, and the “membrane potential after co-application of dopamine with substance” value ([1]; 100 μM THB (from −45.6±1.0, n=7), tolbutamide (from −45.3±2.3, n=4)) was −38.6±1.2 mV, the “altered membrane potential on co-application with dopamine” value ([1]; difference THB vs tolbutamide p>0.05) was 7.0±0.9 mV and the “firing rate of spontaneous action potentials after exposure” value (SNc DA neurons; 100 μM bath-perfusion, before exposure 1.4 Hz, n=7, p<0.05) was 2.2 Hz. For the same compound, the “membrane potential after exposure to substance alone” value (SNc DA neurons; 100 μM, before: THB −46.5±0.9 (n=7), tolbutamide −44.4±1.6 (n=5)) was −41.3±1.9 mV, the “rotenone-induced outward current amplitude after addition of substance” value (neuronal KATP channels) was 52.5±25.7 pA and the “insulin secretion after bath application” value (rat pancreatic islets) was 39.4±1.5 pg/islet/min.
